# Laboratory results published in patent US9999622B2, “Pyrazolothiazole compound and medicine comprising same” (NIPPON SHINYAKU CO., LTD., priority 2014, dated 2018).
# How the values were obtained:
# Format in all cases: biochemical
# JAK2 = biological target: T1, JAK2 (Homo sapiens, UniProt O60674); assay: JAK tyrosine kinase inhibitory activity in the presence of 1 mM ATP (ELISA), JAK2
# T1 construct: purchased Carna Biosciences, Inc
# How it was run: (§1)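 Kinase reactions ran on streptavidin-coated plates in 15 mM Tris-HCl pH 7.5, 0.01% Tween-20, 1 mM DTT, 30 °C for 1 h. Enzyme was prediluted to 7.5 nM (JAK1) or 0.75 nM (JAK2, JAK3) before addition. Phosphotyrosine was detected with HRP anti-pTyr antibody and TMB at A450.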
# JAK3 = biological target: T2, JAK3 (Homo sapiens, UniProt P52333); assay: JAK tyrosine kinase inhibitory activity in the presence of 1 mM ATP (ELISA), JAK3
# T2 construct: purchased Carna Biosciences, Inc
# T2 sequence (P52333 1-1124): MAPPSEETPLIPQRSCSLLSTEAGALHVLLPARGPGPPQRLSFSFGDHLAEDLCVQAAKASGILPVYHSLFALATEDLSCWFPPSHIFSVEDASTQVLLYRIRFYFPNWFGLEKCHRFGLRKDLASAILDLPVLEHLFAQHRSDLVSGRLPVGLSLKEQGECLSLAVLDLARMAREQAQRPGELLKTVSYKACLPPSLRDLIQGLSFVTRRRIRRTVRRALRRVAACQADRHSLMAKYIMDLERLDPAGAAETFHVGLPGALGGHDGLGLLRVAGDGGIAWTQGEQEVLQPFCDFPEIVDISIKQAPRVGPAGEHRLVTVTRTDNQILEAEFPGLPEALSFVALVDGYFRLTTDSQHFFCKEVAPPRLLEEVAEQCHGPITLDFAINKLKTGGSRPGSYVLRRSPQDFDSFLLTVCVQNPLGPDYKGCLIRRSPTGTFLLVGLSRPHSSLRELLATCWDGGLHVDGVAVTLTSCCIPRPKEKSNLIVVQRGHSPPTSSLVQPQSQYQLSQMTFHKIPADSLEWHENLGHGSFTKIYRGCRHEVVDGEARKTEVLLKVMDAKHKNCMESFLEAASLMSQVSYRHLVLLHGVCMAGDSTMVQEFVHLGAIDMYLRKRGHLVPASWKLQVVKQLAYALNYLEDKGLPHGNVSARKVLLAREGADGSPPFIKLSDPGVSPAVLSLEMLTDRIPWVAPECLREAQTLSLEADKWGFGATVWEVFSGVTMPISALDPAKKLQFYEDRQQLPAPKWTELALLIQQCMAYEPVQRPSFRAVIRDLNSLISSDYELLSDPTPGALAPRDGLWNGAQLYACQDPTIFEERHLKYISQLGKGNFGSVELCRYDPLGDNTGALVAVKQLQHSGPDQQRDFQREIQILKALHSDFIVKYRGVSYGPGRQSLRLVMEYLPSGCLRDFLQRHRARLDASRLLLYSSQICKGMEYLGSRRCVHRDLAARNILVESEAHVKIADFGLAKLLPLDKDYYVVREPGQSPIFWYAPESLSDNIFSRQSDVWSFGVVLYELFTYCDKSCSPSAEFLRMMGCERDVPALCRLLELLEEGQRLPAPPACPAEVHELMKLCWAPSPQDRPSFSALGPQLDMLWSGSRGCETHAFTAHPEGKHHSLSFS
# How it was run: as §1
# JAK1 = biological target: T3, JAK1 (Homo sapiens, UniProt P23458); assay: JAK tyrosine kinase inhibitory activity in the presence of 1 mM ATP (ELISA), JAK1
# T3 construct: purchased Carna Biosciences, Inc
# T3 sequence (P23458 whole entry): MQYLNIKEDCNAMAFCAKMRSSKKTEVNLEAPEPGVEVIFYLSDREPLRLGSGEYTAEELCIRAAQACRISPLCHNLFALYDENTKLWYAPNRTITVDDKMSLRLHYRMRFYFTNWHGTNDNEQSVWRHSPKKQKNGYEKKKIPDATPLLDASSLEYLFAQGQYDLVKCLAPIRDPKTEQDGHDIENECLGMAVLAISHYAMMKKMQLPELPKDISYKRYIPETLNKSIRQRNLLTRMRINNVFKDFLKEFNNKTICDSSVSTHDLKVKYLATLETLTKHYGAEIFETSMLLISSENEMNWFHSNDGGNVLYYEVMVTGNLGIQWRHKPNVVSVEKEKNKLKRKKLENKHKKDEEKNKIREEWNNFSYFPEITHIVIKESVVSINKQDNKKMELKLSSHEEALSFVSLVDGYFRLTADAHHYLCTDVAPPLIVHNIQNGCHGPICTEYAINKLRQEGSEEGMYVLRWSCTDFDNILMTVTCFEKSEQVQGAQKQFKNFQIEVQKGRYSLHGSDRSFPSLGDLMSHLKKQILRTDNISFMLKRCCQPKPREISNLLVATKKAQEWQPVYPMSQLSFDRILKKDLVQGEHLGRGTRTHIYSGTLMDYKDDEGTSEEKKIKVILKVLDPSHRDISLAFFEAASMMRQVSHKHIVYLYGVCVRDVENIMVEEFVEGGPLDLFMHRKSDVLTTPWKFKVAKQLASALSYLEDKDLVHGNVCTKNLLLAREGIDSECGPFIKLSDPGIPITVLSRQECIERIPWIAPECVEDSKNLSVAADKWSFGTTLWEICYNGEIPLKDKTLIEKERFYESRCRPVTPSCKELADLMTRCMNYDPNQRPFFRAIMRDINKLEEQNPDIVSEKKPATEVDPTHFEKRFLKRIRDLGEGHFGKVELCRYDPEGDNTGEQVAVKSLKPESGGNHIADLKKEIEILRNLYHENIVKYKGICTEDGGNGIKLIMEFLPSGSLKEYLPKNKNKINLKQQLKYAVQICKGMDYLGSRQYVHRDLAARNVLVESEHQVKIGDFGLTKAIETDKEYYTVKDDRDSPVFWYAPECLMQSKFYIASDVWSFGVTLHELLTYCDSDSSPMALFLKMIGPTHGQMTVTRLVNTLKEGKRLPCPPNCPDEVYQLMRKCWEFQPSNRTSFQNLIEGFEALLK
# How it was run: as §1
# T1 sequence (O60674 whole entry): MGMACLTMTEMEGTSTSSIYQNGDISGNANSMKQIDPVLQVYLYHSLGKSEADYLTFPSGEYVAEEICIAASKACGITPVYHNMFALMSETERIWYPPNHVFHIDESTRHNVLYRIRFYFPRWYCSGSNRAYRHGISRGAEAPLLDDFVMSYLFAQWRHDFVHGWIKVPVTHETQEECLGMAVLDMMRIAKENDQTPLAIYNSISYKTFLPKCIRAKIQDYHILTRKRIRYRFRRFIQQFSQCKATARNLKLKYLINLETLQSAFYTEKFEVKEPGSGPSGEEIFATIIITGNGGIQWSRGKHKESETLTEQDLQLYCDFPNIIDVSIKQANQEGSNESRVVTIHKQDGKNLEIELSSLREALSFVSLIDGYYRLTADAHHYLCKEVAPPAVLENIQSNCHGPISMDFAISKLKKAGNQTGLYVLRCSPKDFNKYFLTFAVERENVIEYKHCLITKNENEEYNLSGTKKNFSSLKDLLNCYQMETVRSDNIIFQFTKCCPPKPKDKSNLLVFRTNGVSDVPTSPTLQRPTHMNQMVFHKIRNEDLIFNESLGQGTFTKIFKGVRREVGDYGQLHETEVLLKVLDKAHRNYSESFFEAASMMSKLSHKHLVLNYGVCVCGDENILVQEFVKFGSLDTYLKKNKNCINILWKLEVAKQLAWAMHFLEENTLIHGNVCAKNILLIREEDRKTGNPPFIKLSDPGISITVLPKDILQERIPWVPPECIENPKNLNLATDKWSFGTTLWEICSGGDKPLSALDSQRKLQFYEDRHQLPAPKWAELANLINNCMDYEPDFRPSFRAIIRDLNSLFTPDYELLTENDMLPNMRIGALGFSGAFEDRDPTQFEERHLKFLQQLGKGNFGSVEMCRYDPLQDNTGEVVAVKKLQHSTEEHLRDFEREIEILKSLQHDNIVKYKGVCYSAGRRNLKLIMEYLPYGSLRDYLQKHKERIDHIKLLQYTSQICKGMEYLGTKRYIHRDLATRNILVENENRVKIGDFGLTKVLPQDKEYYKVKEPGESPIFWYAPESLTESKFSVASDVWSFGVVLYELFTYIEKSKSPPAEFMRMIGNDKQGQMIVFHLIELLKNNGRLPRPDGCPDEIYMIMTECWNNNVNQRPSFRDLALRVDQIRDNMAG
SMILES,IC50 (JAK2),IC50 (JAK3),IC50 (JAK1)
"COC(=O)NC1CCN(C(=O)c2cc(NC(C)c3ccncc3)nc(-c3cnn4ccsc34)n2)CC1 (stereo not drawn) [Example 162, Methyl 1-[2-(pyrazolo[5,1 b][1,3]thiazol-7-yl)-6-[1-(pyridin-4-yl)ethyl]aminopyrimidine-4-carbonyl]piperidin-4-ylcarbamate]",> 10000 nM,> 10000 nM,1100 nM
"COC(=O)NC1CCN(C(=O)c2cc(NCCC3CC3)nc(-c3cnn4ccsc34)n2)CC1 [Example 163, Methyl (1-6-[(2-cyclopropylethyl)amino]-2-(pyrazolo[5,1-b][1,3]thiazol-7-yl)pyrimidine-4-carbonylpiperidin-4-yl)carbamate]",> 10000 nM,5600 nM,450 nM
"COC(=O)NC1CCN(C(=O)c2cc(OCC3CN(C(=O)OC(C)(C)C)C3)nc(-c3cnn4ccsc34)n2)CC1 [Example 164, Tert-butyl 3-([6-4-[(methoxycarbonyl)amino]piperidine-1-carbonyl-2-(pyrazolo[5,1-b][1,3]thiazol-7-yl)pyrimidin-4-yl]oxymethyl)azetidine-1-carboxylate]",> 10000 nM,> 10000 nM,2600 nM
"O=C(NC1CCN(C(=O)c2cc(N[C@H]3CC[C@H](O)CC3)nc(-c3cnn4ccsc34)n2)CC1)C1CC1 [Example 168, N-(1-6-[(trans-4-hydroxycyclohexyl)amino]-2-(pyrazolo[5,1-b][1,3]thiazol-7-yl)pyrimidine-4-carbonylpiperidin-4-yl)cyclopropanecarboxamide]",> 10000 nM,3200 nM,1200 nM
"C[C@@H](Nc1cc(C(=O)N2CCC(NC(=O)C3CC3)CC2)nc(-c2cnn3ccsc23)n1)C1CCCCC1 [Example 169, N-1-[6-[(1R)-1-cyclohexylethyl]amino-2-(pyrazolo[5,1-b][1,3]thiazol-7-yl)pyrimidine-4-carbonyl]piperidin-4-ylcyclopropanecarboxamide]",6400 nM,2100 nM,160 nM

# Other lines, results leading:
IC50 (JAK2),IC50 (JAK3),IC50 (JAK1),SMILES
> 10000 nM,> 10000 nM,47 nM,"COC(=O)NC1CCN(C(=O)c2cc(N[C@H](C)C3CCCCC3)nc(-c3cnn4ccsc34)n2)CC1 [Example 161, Methyl 1-[6-[(1R)-1-cyclohexylethyl]amino-2-(pyrazolo[5,1-b][1,3]thiazol-7-yl)pyrimidine-4-carbonyl]piperidin-4-ylcarbamate]"
> 10000 nM,1200 nM,40 nM,"C[C@H](Nc1cc(C(=O)N2CCC(NC(=O)C3CCC3)CC2)nc(-c2cnn3ccsc23)n1)C1CC1 [Example 165, N-1-[6-[(1S)-1-cyclopropylethyl]amino-2-(pyrazolo[5,1-b][1,3]thiazol-7-yl)pyrimidine-4-carbonyl]piperidin-4-yl cyclobutanecarboxamide]"
9500 nM,1100 nM,230 nM,"C[C@H](Nc1cc(C(=O)N2CCC(NC(=O)C3CCCCC3)CC2)nc(-c2cnn3ccsc23)n1)C1CC1 [Example 167, N-1-[6-[(1S)-1-cyclopropylethyl]amino-2-(pyrazolo[5,1-b][1,3]thiazol-7-yl)pyrimidine-4-carbonyl]piperidin-4-ylcyclohexanecarboxamide]"
> 10000 nM,> 10000 nM,1600 nM,"CC(Nc1cc(C(=O)N2CCC(NC(=O)C3CC3)CC2)nc(-c2cnn3ccsc23)n1)c1ccncc1 (stereo not drawn) [Example 170, N-1-[2-(pyrazolo[5,1-b][1,3]thiazol 7 yl) 6 [1-(pyridin-4-yl)ethyl]aminopyrimidine-4-carbonyl]piperidin-4-ylcyclopropanecarboxamide]"
> 10000 nM,> 10000 nM,850 nM,"CC(C)(C)OC(=O)N1CCC(Nc2cc(C(=O)N3CCC(NC(=O)C4CC4)CC3)nc(-c3cnn4ccsc34)n2)CC1 [Example 171, Tert-butyl 4-[6-4-[(cyclopropanecarbonyl)amino]piperidine-1-carbonyl-2-(pyrazolo[5,1-b][1,3]thiazol-7-yl)pyrimidin-4-yl]aminopiperidine-1-carboxylate]"
